Values of other authors as cited in US20250268834A1, “IONIC LIQUID SALTS OF ACTIVE PHARMACEUTICAL INGREDIENTS” (GlaxoSmithKline Consumer Healthcare Holdings (US) LLC, priority 2021, published 2025).

Conditions: hydrolysis of amide to 4-aminophenol in liquids

pH with lowest hydrolysis levels of APAP: 5-6
Compound: CC(=O)Nc1ccc(O)cc1 [APAP, acetaminophen]
